According to EP0457318B1, “Alpha-Oxopyrrolo[2,3-b]indole acetic acids, esters, amides and related analogs, a process for their preparation and their use as medicaments” (HOECHST-ROUSSEL PHARMACEUTICALS INCORPORATED, priority 1990, dated 1991):
Like-named read-outs stand apart in the source and are kept apart here.

What was measured:
Brain AChE = molecular target: T1, Brain AChE (Rattus norvegicus, UniProt P37136); assay: In vitro inhibition of acetylcholinesterase activity in rat striatum (modified Ellman method); assay type: biochemical
T1 construct: corpora striata dissected free, weighed and homogenized in 19 volumes; from tissue; host or cells: rat corpora striata homogenate (male Wistar rats)
Text: Cholinesterases are found throughout the body, both in the brain and in serum. However, only brain acetylcholinesterase (AChE) distribution is correlated with central cholinergic innervation. […] We have determined in vitro inhibition of acetylcholinesterase activity in rat striatum according to the method described below.
In Vitro Inhibition of Acetylcholinesterase Activity in Rat Striatum
The method described below was used in this invention for assaying anticholinesterase activity. This is a modification of the method of Ellman et al., Biochem. Pharmacol. 7, 88 (1961).
• 1. 0.05 M Phosphate buffer, pH 7.2 • (a) 6.85 g NaH2PO4·H2O/100 ml distilled H2O • (b) 13.40 g Na2HPO4·7H2O/100 ml distilled H2O • (c) add (a) to (b) until pH reaches 7.2 • (d) Dilute 1:10 • 2. Substrate in buffer • (a) 198 mg acetylthiocholine chloride (10 mM) • (b) q.s. to 100 ml with 0.05 M NaPO4, pH 7.2 (reagent 1) • 3. DTNB in buffer • (a) 19.8 mg 5,5-dithiobisnitrobenzoic acid (DTNB) (0.5 mM) • (b) q.s. to 100 ml with 0.05M NaPO4, pH 7.2 (reagent 1) • 4. A 2mM stock solution of the test drug is made up in a suitable solvent and q.s. to volume with 0.5 mM DTNB (reagent 3). Drugs are serially diluted (1:10) such that the final concentration (in cuvette) is 10^-4M and screened for activity. If active, IC50 values are determined from the inhibitory activity of subsequent concentrations.
Male Wistar rats are decapitated, brains rapidly removed, corpora striata dissected free, weighed and homogenized in 19 volumes (approximately 7 mg protein/ml) of 0.05 M phosphate buffer, pH 7.2 using a Potter-Elvehjem homogenizer. A 25 microliter aliquot of the homogenate is added to 1 ml of vehicle or various concentrations of the test drug and preincubated for 10 minutes at 37°C.
Enzyme activity is measured with the Beckman DU-50 spectrophotometer. This method can be used for IC50 determinations and for measuring kinetic constants.
Kinetics Soft-Pac Module #598273 (10) Program #6 Kindata: Source - Vis Wavelength - 412 nm Sipper - none Cuvettes - 2 ml cuvettes using auto 6-sampler Blank - 1 for each substrate concentration Interval time - 15 seconds (15 or 30 seconds for kinetics) Total time - 5 minutes (5 or 10 minutes for kinetics) Plot - yes Span - autoscale Slope - increasing Results - yes (gives slope) Factor - 1 […]
Blank values are determined for each run to control non enzymatic hydrolysis of substrate and these values are automatically substracted by the kindata program available on kinetics soft-pac module. This program also calculates the rate of absorbance change for each cuvette. […]
IC50 values are calculated from log-probit analysis.

[1] = tested on: Scopolamine Induced Memory Deficit; assay: Dark Avoidance Assay (reversal of scopolamine induced memory deficit); assay type: in vivo; conditions: mice, s.c., retest after 24 hours
Method: In this assay mice are tested for their ability to remember an unpleasant stimulus for a period of 24 hours. A mouse is placed in a chamber that contains a dark compartment; a strong incandescent light drives it to the dark compartment, where an electric shock is administered through metal plates on the floor. The animal is removed from the testing apparatus and tested again, 24 hours later, for the ability to remember the electric shock.
If scopolamine, an anticholinergic that is known to cause memory impairment, is administered before an animal's initial exposure to the test chamber, the animal re-enters the dark compartment shortly after being placed in the test chamber 24 hours later. This effect of scopolamine is blocked by an active test compound, resulting in a greater interval before re-entry into the dark compartment.
The results for an active compound are expressed as the percent of a group of animals in which the effect of scopolamine is blocked, as manifested by an increased interval between being placed in the test chamber and re-entering the dark compartment.

[2] = rat striatum homogenate, preincubated 10 minutes at 37°C, 5 mM acetylthiocholine, pH 7.2, read-out: Inhibitory Concentration (IC50) Brain AChE

T1 sequence (P37136 32-614): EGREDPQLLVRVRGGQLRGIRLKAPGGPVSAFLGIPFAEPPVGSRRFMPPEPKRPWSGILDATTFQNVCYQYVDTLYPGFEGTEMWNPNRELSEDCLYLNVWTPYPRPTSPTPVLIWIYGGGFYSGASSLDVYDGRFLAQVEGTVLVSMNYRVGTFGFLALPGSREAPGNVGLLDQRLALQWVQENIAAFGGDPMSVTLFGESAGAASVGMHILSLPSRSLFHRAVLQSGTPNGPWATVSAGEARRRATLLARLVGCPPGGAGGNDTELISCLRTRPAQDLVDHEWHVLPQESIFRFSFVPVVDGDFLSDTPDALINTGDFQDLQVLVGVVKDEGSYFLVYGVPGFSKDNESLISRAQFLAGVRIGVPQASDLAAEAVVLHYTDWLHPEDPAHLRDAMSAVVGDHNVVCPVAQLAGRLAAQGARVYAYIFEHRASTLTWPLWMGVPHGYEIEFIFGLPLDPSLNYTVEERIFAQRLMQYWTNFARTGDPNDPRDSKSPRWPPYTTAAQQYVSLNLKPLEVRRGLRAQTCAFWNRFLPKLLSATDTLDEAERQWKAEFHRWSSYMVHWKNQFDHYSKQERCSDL

CCCCOC(=O)C(=O)c1ccc2c(c1)C1(C)CCN(C)C1N2C (stereo not drawn) [1,2,3,3a,8,8a-Hexahydro-α-oxo-1,3a,8-trimethyl-5-pyrrolo[2,3-b]indole acetic acid, n-butyl ester]
IC50 (Brain AChE; [2]): 5.7 µM

CCCCCOC(=O)C(=O)c1ccc2c(c1)C1(C)CCN(C)C1N2C (stereo not drawn) [1,2,3,3a,8,8a-Hexahydro-α-oxo-1,3a,8-trimethyl-5-pyrrolo[2,3-b]indole acetic acid, n-pentyl ester]
IC50 (Brain AChE; [2]): 8 µM

CN1CCC2(C)c3cc(C(=O)C(=O)OCCc4ccccc4)ccc3N(C)C12 (stereo not drawn) [1,2,3,3a,8,8a-Hexahydro-α-oxo-1,3a,8-trimethyl-5-pyrrolo[2,3-b]indole acetic acid, phenylethyl ester]
% of Animals with Scopolamine Induced Memory Deficit Reversal ([1]; dose 0.1 mg/kg of body weight): 29% | % of Animals with Scopolamine Induced Memory Deficit Reversal ([1]; dose 0.3 mg/kg of body weight): 36% | % of Animals with Scopolamine Induced Memory Deficit Reversal ([1]; dose 1.0 mg/kg of body weight): 20% | IC50 (Brain AChE): 9.1 µM

CN1CCC2(C)c3cc(C(=O)C(=O)OCc4ccccc4)ccc3N(C)C12 (stereo not drawn) [1,2,3,3a,8,8a-Hexahydro-α-oxo-1,3a,8-trimethyl-5-pyrrolo[2,3-b]indole acetic acid, phenylmethyl ester]
IC50 (Brain AChE; [2]): 4.4 µM

CC[C@@H]1C(=O)OC[C@@H]1Cc1cncn1C [Pilocarpine, reference compound]
% of Animals with Scopolamine Induced Memory Deficit Reversal ([1]; dose 5.0 mg/kg of body weight): 13%

Nc1c2c(nc3ccccc13)CCCC2 [Tacrine, reference compound]
% of Animals with Scopolamine Induced Memory Deficit Reversal ([1]; dose 0.63 mg/kg of body weight): 13%
